Values joined by “and” are separate entries in the source; they are usually repeats but may differ in a detail not shown here. Equal entries are not always repeated.
Key:
[1] = high fat diet mice treated with metformin and antibody (Example 4); type: in vivo, mouse; settings: monotherapy, 45% high fat diet; FIG. 12A
Procedure: Male C57/BL6 mice were fed a 60% high fat diet beginning at six weeks of age. At nineteen weeks of age (day 0), the mice were switched to a 45% high fat diet for 63 days. […] These mice were further divided into groups that received either 50 mg/kg of metformin or no metformin (Table 22a).
Body weight and food intake were monitored three times per week throughout the study. On days 7, 35, 49, and 63, body composition was determined by qNMR, and glucose, ketones, and insulin were measured. At the end of the study on day 63, body composition was determined by qNMR; glucose, ketones, and insulin were measured, gastrocnemius muscle, whole liver, epididymal, and subcutaneous adipose tissue was collected and weighed.
Male C57/BL6 mice (n=8/group) were fed a 60% HFD until week 18, at which time they are switched to a 45% HFD for 7 days. At day 7, animals in group 3-6 were treated with 50 mg/kg/day metformin, given orally throughout the remainder of the study.
Body weight was measured three times per week; lean mass and fat mass were measured by qNMR on days 7, 35, 49, 63, and 77; serum glucose was also measured on days 7, 35, 49, 63, and 77; serum insulin was measured on days 49, 63, and 77. A glucose tolerance test (GTT) and an insulin tolerance test (ITT) was administered between day 56 and day 63.

[2] = type 2 diabetics, meta-analysis; cited from earlier work
latent myostatin = latent myostatin (Homo sapiens, UniProt O14793); settings: in vivo; cited from earlier work
[3] = patients with SMA, Phase 2 (TOPAZ; NCT03921528); cited from earlier work
[4] = test system: follicle stimulating hormone (FSH); settings: women; cited from earlier work
[5] = obese patients with type 2 diabetes; cited from earlier work
leptin = assay: circulating leptin, U-PLEX Metabolic Hormones Combo 1 (Example 6); type: in vivo, mouse; settings: FIG. 14K
Procedure: Circulating leptin was measured using the U-PLEX Metabolic Hormones Combo 1 (mouse) according to manufacturer's instructions (Meso Scale Diagnostics, #K15306K-2). As expected, circulating leptin was higher in animals fed the high fat diet than animals fed a standard chow.

[6] = semaglutide plus Ab109 in DIO mice incl. semaglutide withdrawal (Example 6); type: in vivo, mouse
Procedure: Male C57/BL6 male mice (n=8/group) were either fed regular mouse chow (Group 1) or placed on a 60% high fat diet at six weeks of age and maintained on the 60% high fat diet until 21 weeks of age (Groups 2-8), at which time the study began (day 0). On day 0, animals in groups 2-8 were switched to a 45% high fat diet and maintained on the 45% high fat diet until the animals were terminated. […] Body weight was measured three times per week and qNMR measurements of lean mass and fat mass were obtained on the days set forth.
Animals in groups 3 and 4 were dosed with semaglutide weekly for 14 days, then terminated. Animals in groups 5 and 6 (weight regain groups), were treated with semaglutide for 35 days, then the semaglutide treatment was ended while the myostatin activation inhibiting antibody treatment continued until the animals were terminated on day 63. The animals in Groups 7 and 8 were treated with semaglutide for 63 days, i.e., they remained on semaglutide until the study terminated on day 63.
At termination, left and right gastrocnemius muscles were removed and frozen; the liver was weighed, one lobe was fixed, and the remainder was frozen; epididymal adipose tissue was removed and weighed; subcutaneous adipose tissue was removed and weighed; and a terminal serum bleed was obtained.

[7] = Wilding et al. 2022; cited from earlier work
[8] = Ab109 with 0.01 or 0.04 mg/kg semaglutide in DIO mice (Example 9); type: in vivo, mouse; settings: for loss in perigonadal fat pad weight: FIG. 22A; for loss in inguinal fat pads: FIG. 22B; for loss in quadriceps weight: FIG. 21A
Procedure: Male C57/BL6 male mice (n=8/group) were placed on a 60% high fat diet at […] of age and maintained on the 60% high fat diet until 21 weeks of age (Groups 1-12), at which time the study began (day −7). On day −7, animals in groups 1-12 were switched to a 45% high fat diet and maintained on the 45% high fat diet until the animals were terminated. […] Body weight was measured three times per week and qNMR measurements of lean mass and fat mass were obtained pre-dose on day 0 and on days 7, 14 and 21. Fasting glucose was measured on day 18 after a 4 hour fast.
Animals in groups 3-12 were dosed with semaglutide daily for 3 weeks, then terminated. Animals in groups 1, 3, and 4 were treated with IgG control antibody, and those in groups 2, 5-12 were treated with myostatin activation inhibiting antibody treatment, for 3 weeks.
At termination, left gastrocnemius and quadriceps muscles were removed and frozen; the liver was weighed, one lobe was frozen; epididymal (perigonadal) adipose tissue was removed and weighed; inguinal (subcutaneous) adipose tissue was removed and weighed; and a terminal serum bleed was obtained.

Question: Which fat mass gain [1] does the source give for CN(C)C(=N)N=C(N)N [metformin, reference compound] here?
Answer: Neither metformin alone nor Ab109 alone showed this effect

Question: What about the “effect on weight loss” value [2] of the same molecule?
Answer: no effect on weight loss

Question: Which results are given for “apitegromab: selective myostatin inhibitor antibody that targets pro/latent myostatin and inhibits its activation”?
Answer: circulating latent myostatin in treated subjects (latent myostatin): elevated levels of circulating latent myostatin; efficacy and safety [3]: shown efficacy and safety

Question: Which “follicle stimulating hormone (FSH)” value [4] does the source give for bimagrumab: an anti-ActRIIB antibody here?
Answer: significantly reduce follicle stimulating hormone (FSH)

Question: What about the “total body fat mass and lean mass” value [5] of the same molecule?
Answer: reduce total body fat mass and increase lean mass

Question: Which circulating leptin (leptin) does the source give for semaglutide [reference compound] here?
Answer: lowered circulating leptin

Question: What about the body weight ([6]; 45% high fat diet, semaglutide 0.04 mg/kg with hIgG or Ab109, incl. regain after withdrawal, FIG. 14A) of the same molecule?
Answer: lost weight

Question: And the “loss of lean mass while on semaglutide” value ([6]; semaglutide and hIgG)?
Answer: about 4%

Question: And the “net loss of lean mass at the end of the study” value ([6]; semaglutide and hIgG, after semaglutide was stopped)?
Answer: 2.5%

Question: What about the fat mass ([6]; semaglutide, and regain after withdrawal with Ab109 or control IgG, FIG. 14D) of the same molecule?
Answer: induced fat mass loss

Question: And the “regain of prior weight loss one year after discontinuing treatment” value [7]?
Answer: regained two-thirds of their prior weight loss

Question: And the “loss in lean mass” value ([8]; 0.01 mg/kg semaglutide, FIG. 20B)?
Answer: 4.7%

Question: And the “loss of lean mass” value ([8]; 0.04 mg/kg semaglutide and hIgG, 3 weeks, FIG. 20A)?
Answer: about 9.5%

Question: And the body weight ([8]; 45% high fat diet, semaglutide 0.01 or 0.04 mg/kg daily, 3 weeks, FIGS. 18A-B)?
Answer: lost weight

Question: And the “loss in perigonadal fat pad weight” value ([8]; semaglutide 0.01 mg/kg)?
Answer: −19.1%

Question: What about the “loss in inguinal fat pads” value ([8]; semaglutide 0.01 mg/kg) of the same molecule?
Answer: −21.4%

Question: What about the fat mass loss ([8]; semaglutide 0.04 mg/kg alone or with Ab109, FIG. 19A, 19C) of the same molecule?
Answer: induced fat mass loss

Question: What about the “loss in perigonadal fat pad weight” value ([8]; semaglutide 0.04 mg/kg) of the same molecule?
Answer: −45.5%

Question: And the “loss in inguinal fat pads” value ([8]; semaglutide 0.04 mg/kg)?
Answer: −47.4%

Question: And the “loss in gastrocnemius muscle weight” value ([8]; semaglutide 0.01 and 0.04 mg/kg, dose of each value not stated, FIG. 21B)?
Answer: −16.9% and −20.3%

Question: And the “loss in quadriceps weight” value ([8]; semaglutide high dose (0.04 mg/kg))?
Answer: −7.6%

Question: And the “loss in quadriceps weight” value ([8]; semaglutide low dose (0.01 mg/kg))?
Answer: −4.8%

From patent US20260209325A1, “SELECTIVE AND POTENT INHIBITORY ANTIBODIES OF MYOSTATIN ACTIVATION” (SCHOLAR ROCK, INC., priority 2022, published 2026)
